Patent US20150190388A1, “PHARMACEUTICAL COMPOSITION OF MOXIFLOXACIN HYDROCHLORIDE AND PREPARATION METHOD” (RIVOPHARM SA, priority 2012, published 2015)
“Also recorded” adds a separate entry of the source. Structures can show the parent of a compound that is named as a salt.

Test: Stability of the anhydrous moxifloxacin hydrochloride to humidity and drying (XRPD, water content)
Assay type: physicochemical
Source text: The water contents of the moxifloxacin hydrochloride and of the excipients can be determined using any one of the analytical methods described in the prior art. For example, one may use of the Karl Fisher titration method as described in the European Pharmacopoeia Chapter 2.5.12 (Ph. Eur. 2.5.12) using the Metrohm 7012 KF Titrino® titrator.
The anhydrous moxifloxacin hydrochloride is exposed for several hours to a relative humidity of approximately 40%, which causes an increase in its water content. At the end of the exposure, the water content of the active ingredient is approximately 4% by weight. […] Such results illustrate the low stability of the anhydrous moxifloxacin hydrochloride in the presence of a humidity level of 40%. The conversion of the anhydrous moxifloxacin hydrochloride into a hydrate form becomes significant for a water content above 2%.

water content above which conversion of the anhydrous form into a hydrate form becomes significant: above 2%
water content after drying of the hydrate form obtained (drying for several hours): less than 1 % by weight
water content at the end of the exposure (exposed for several hours to a relative humidity of approximately 40%): approximately 4 % by weight
SMILES: COc1c(N2C[C@@H]3CCCN[C@@H]3C2)c(F)cc2c(=O)c(C(=O)O)cn(C3CC3)c12 [anhydrous moxifloxacin hydrochloride, 1-cyclopropyl-6-fluoro-1,4-dihydro-8-methoxy-7-[(4aS,7aS)-octahydro-6H-pyrrolo[3,4-b]pyridin-6-yl]-4-oxo-3-quinolinecarbolic acid]
polymorphic form by XRPD after drying of the hydrate form (drying for several hours, FIG. 2 curve 2): reconvert the hydrate formed into an anhydrous polymorphic form; also recorded: conversion into the starting anhydrous form
polymorphic form by XRPD after humidity exposure (several hours at relative humidity of approximately 40%, FIG. 2 curve 3): has a tendency to convert into hydrate; also recorded: converted into a hydrate polymorphic form
